We go through 6 molecules from US20260231947A1, “IMPROVED BIOCIDE COMPOSITIONS” (Solugen, Inc., priority 2021, published 2026).

In brackets after ≈: the same amount, converted by molar mass. Like-named read-outs stand apart in the source and are kept apart here.

The subject of experiment [1] is Wild Strain General Bacteria. In words: MIC, microtiter plate, general aerobic bacteria from produced water. It is filed as cell-based, Pseudomonas aeruginosa and Enterobacter aggolomerans. How it is done:
(§1) The ability of an BF to inhibit microorganisms was investigated. Specifically, three bacteria types were tested to compare the MIC of a biocide, a biochelant and IBFs of the present disclosure. The bacteria types utilized were isolated from produced water from the Marcellus shale formation, and identified as (i) general aerobic bacteria identified as Pseudomonas aeruginosa and Enterobacter aggolomerans (ii) Wild strain sulfate reducing bacteria and (iii) acid producing bacteria. General aerobic bacteria aid in the formation of biofilms. Most of these bacteria will be found either floating freely in water (planktonic organisms) or will be attached to various surfaces (sessile organisms). Wild strain Sulfate Reducing Bacteria and Acid Producing Bacteria isolated from the produced fluid was also used. Wild strain Sulfate Reducing Bacteria (WSRB) are the most common anaerobic organisms found in the oil and gas industry. WSRB are an issue as they will reduce sulfate into sulfides which can turn into hydrogen sulfide, souring the fluid in the oil and gas well.
(§2) The bacteria tested were placed in a microtiter plate, where a high throughput test was performed to determine MIC (minimum inhibitor concentration). […] The BE contained 1:1 biocide:biochelant each at 50 ppm.

Another experiment has as its system Wild Strain APB. In words: MIC, microtiter plate, wild strain acid producing bacteria. It is filed as cell-based. How it is done:
as §1, §2

The subject of experiment [2] is bacteria isolated from produced water from the Marcellus shale formation. Kind of experiment: MIC, Example 1, maximum reduction over the three bacteria types. It is filed as cell-based. The settings on record: biocide used in conjunction with biochelants, versus biocide alone. How it is done:
as §1, §2

The subject of the next experiment is Wild Strain SRB. Kind of experiment: MIC, microtiter plate, wild strain sulfate reducing bacteria. It is filed as cell-based. How it is done: as §1, §2
Experiment [3] has as its system General Wild Strain Bacteria. Kind of experiment: MIC, Example 2, TTPC and bleach. It is filed as cell-based. The text has this:
The biocides used were tributyl tetradecyl phosphonium chloride (TTPC, BELLACIDE 350) and household bleach.

For another experiment, the system named is Pseudomonas aeruginosa. Kind of experiment: MIC, Example 3, quaternary ammonium biocides.
Another experiment relates to Staphylococcus aureus. Kind of experiment: MIC, Example 3, quaternary ammonium biocides.
The subject of the next experiment is Escherichia coli. Kind of experiment: MIC, Example 3, quaternary ammonium biocides.
A further experiment concerns Klebsiella pneumoniae. In words: MIC, Example 3, quaternary ammonium biocides.
Where [4] appears, read: Wild Strain General Bacteria, IBF 1:1 biocide:biochelant, read-out: MIC.
The mark [5] stands for this setting: Wild Strain APB, IBF 1:1 biocide:biochelant, read-out: MIC.
Where [6] appears, read: General Wild Strain Bacteria, read-out: MIC.

Source text for Escherichia coli: (§3) The ability of an IBF to inhibit microorganisms was investigated. The biocides used as components of the IBF were quaternary ammonium compounds. […] The bacterial strains tested were Pseudomonas aeruginosa, Staphylococcus aureus, Escherichia coli and Klebsiella pneumoniae.
Source text for Klebsiella pneumoniae: as §3
Source text for Pseudomonas aeruginosa: as §3
Source text for Staphylococcus aureus: as §3

Turning to `O=[N+]([O-])C(Br)(CO)CO` [10% BRONOPOL, 2-bromo-2-nitro-1,3-propanediol], the MIC in experiment [1] (setting [4]) amounted to 125 µg/mL (≈ 0.625 mM); with Wild Strain APB (setting [5]), 62.5 µg/mL (≈ 0.313 mM). Also, the “maximum MIC reduction” value in [2] stood at 98%.
Take `O=C(O)[C@H](O)[C@@H](O)[C@H](O)[C@H](O)CO` [G050, gluconic acid]: the MIC in [1] stood at 10000 µg/mL (≈ 51 mM); against Wild Strain SRB, 312 µg/mL (≈ 1.59 mM); in the experiment on Wild Strain APB, 625 µg/mL (≈ 3.19 mM); in [3], 10000 µg/mL (≈ 51 mM); against Pseudomonas aeruginosa, 5000 µg/mL (≈ 25.5 mM); against Staphylococcus aureus it was 5000 µg/mL (≈ 25.5 mM). In addition, the MIC against Escherichia coli and against Klebsiella pneumoniae was 5000 µg/mL (≈ 25.5 mM) each time.
Take `O=CCCCC=O` [50% Glut, glutaraldehyde]: the MIC turned out to be 1000 µg/mL (≈ 9.99 mM) in [1] (setting [4]) and 500 µg/mL (≈ 4.99 mM) in the experiment on Wild Strain APB (setting [5]).
On to “tetrakis hydroxymethyl-phosphonium sulfate [75% THPS]”, for which the MIC in [1] (Wild Strain General Bacteria, IBF 1:1 biocide:biochelant) turned out to be 1000 ppm; against Wild Strain SRB (Wild Strain SRB, IBF 1:1 biocide:biochelant), 1000 ppm; against Wild Strain APB (Wild Strain APB, IBF 1:1 biocide:biochelant), 62.5 ppm. Further, the “maximum MIC reduction” value in [2] stood at 97%.
As for `O=C(O)[C@@H](O)[C@@H](O)[C@H](O)[C@@H](O)C(=O)O` [GA50, glucaric acid], the MIC in experiment [1] (setting [4]) was 2500 µg/mL (≈ 11.9 mM); in the experiment on Wild Strain APB (setting [5]) it was 625 µg/mL (≈ 2.97 mM); in experiment [3] (setting [6]) it was 2500 µg/mL (≈ 11.9 mM); with Pseudomonas aeruginosa, 1250 µg/mL (≈ 5.95 mM); in the experiment with Staphylococcus aureus, 5000 µg/mL (≈ 23.8 mM); with Escherichia coli it was 625 µg/mL (≈ 2.97 mM). The same molecule gave an MIC against Klebsiella pneumoniae of 1250 µg/mL (≈ 5.95 mM).
In the case of `CCCCCCCCCCCCCC[P+](CCCC)(CCCC)CCCC.[Cl-]` [Bellacide 350 (TTPC), tributyl tetradecyl phosphonium chloride], the MIC in experiment [3] (setting [6]) worked out at 500 µg/mL; in experiment [3] (General Wild Strain Bacteria, with biochelant, read-out: MIC of the biocide as a component of an IBF), 15.6 µg/mL.
